Experimental data reported in the NIST ThermoML archive (doi:10.1016/j.jct.2016.04.014).

Details: Liquid, Vibrating tube method

CCCCCCCC [octane]
mass density [kg/m3]
Details | 323.15 K | 328.15 K | 333.15 K | 343.15 K | 353.15 K | 363.15 K | 373.15 K | 393.15 K | 413.15 K
100 kPa | – | 673.8 | 669.7 | 661.2 | 652.6 | 643.8 | 634.7 | 616.3 | –
1000 kPa | – | 674.7 | 670.6 | 662.2 | 653.7 | 645 | 636.3 | 618.1 | 599.3
5000 kPa | – | 678.7 | 674.8 | 666.6 | 658.4 | 650.1 | 641.8 | 624.3 | 606.6
10000 kPa | – | 683.5 | 679.7 | 671.9 | 664.1 | 656.1 | 648.2 | 631.8 | 615.1
15000 kPa | – | 688.1 | 684.5 | 677 | 669.4 | 661.9 | 654.4 | 638.8 | 623.1
20000 kPa | – | 692.5 | 689 | 681.8 | 674.5 | 667.3 | 660.1 | 645.3 | 630.6
25000 kPa | – | 696.7 | 693.2 | 686.3 | 679.3 | 672.4 | 665.5 | 651.5 | 637.4
30000 kPa | – | 700.7 | 697.3 | 690.6 | 683.9 | 677.2 | 670.6 | 657.1 | 643.8
35000 kPa | – | 704.4 | 701.1 | 694.6 | 688.1 | 681.6 | 675.3 | 662.3 | 649.6
40000 kPa | – | 707.9 | 704.7 | 698.4 | 692.1 | 685.8 | 679.6 | 667.1 | 654.8
45000 kPa | – | 711.3 | 708.1 | 701.9 | 695.7 | 689.6 | 683.6 | 671.4 | 659.5
50000 kPa | 717.4 | 714.4 | 711.3 | 705.2 | 699.1 | 693.1 | 687.3 | 675.3 | 663.6
55000 kPa | 720.3 | 717.3 | 714.2 | 708.2 | 702.3 | 696.3 | 690.5 | 678.8 | 667.2
60000 kPa | 722.9 | 719.9 | 716.9 | 711 | 705.1 | 699.2 | 693.5 | 681.8 | 670.2
